The results in this text go back to PubChem BioAssay (NCI).

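Cultured in 96-well plates, cells were exposed to test compound for 48 hours across five concentrations. TGI is the concentration that stops growth completely.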

Common to all, as to experiment: inhibition of tumour cell growth, NCI panel, 48 h
The test system of experiment [1] is ACHN renal.
Experiment [2] deals with NCI-H226 lung.
In experiment [3] the test system is DMS 273 small cell lung.
Experiment [4] concerns MOLT-4 leukemia.
The subject of experiment [5] is CCRF-CEM leukemia.
For experiment [6], the system named is LOX IMVI melanoma.
Experiment [7] concerns UACC-257 melanoma.
The test system of experiment [8] is HL-60(TB) leukemia.
In experiment [9] the test system is EKVX NSCLC.
Experiment [10] deals with HT29 colon.
Experiment [11] relates to SF-268 CNS.
For experiment [12], the system named is KM12 colon.
For experiment [13], the system named is OVCAR-5 ovarian.
The test system of experiment [14] is CAKI-1 renal.
The test system of experiment [15] is COLO 205 colon.
For experiment [16], the system named is U251 CNS.
The subject of experiment [17] is PC-3 prostate.
Experiment [18] concerns DU-145 prostate.
The subject of experiment [19] is MDA-MB-435.
Experiment [20] relates to MCF7 breast.

On to `COc1ccc(N2C(=O)C3CC(c4ccc(Br)cc4)c4c([nH]c5ccccc45)C3C2=O)cc1` (configuration not stated), for which the TGI in experiment [1] is 15.4 µM; in experiment [2] it was 77.2 µM; in [3], 18.2 µM; in experiment [4] it was 29 µM; in experiment [5] it was more than 100 µM; in experiment [6] it was 16.3 µM. Further, the TGI is 36.8 µM in [7]; more than 100 µM in experiment [8]; 42.7 µM in experiment [9]; 44.5 µM in experiment [10]; 23.4 µM in experiment [11]; more than 100 µM in [12]. Moreover, the results for the TGI in experiment [13], in experiment [14] and in experiment [15] were 73.4 µM, 29.6 µM and 34.8 µM, respectively.
In the case of `O=S1(=O)c2ccccc2N(O)C2=NCCN21`, the TGI in [1], in experiment [2], in experiment [3], in experiment [16], in experiment [4] and in [5] was more than 100 µM each time. For the same molecule, the TGI in experiment [6], in experiment [7], in experiment [8], in experiment [9], in [10] and in experiment [11] was more than 100 µM throughout. For the same molecule, the TGI in [12], in experiment [13], in [14] and in [15] was more than 100 µM in each case.
`COC(=O)C1=CO[C@@H](C)[C@@H]2Cn3ccc4c5ccccc5nc-4c3C[C@H]12`: the TGI in experiment [1], in [2], in experiment [3], in experiment [16], in [4] and in experiment [5] was more than 100 µM throughout. In addition, the TGI in experiment [6], in experiment [7], in experiment [9], in experiment [10], in [11] and in experiment [13] was more than 100 µM in each case. Also, the TGI in experiment [15] is more than 100 µM.
For the molecule `O=C1CCCCCCC2=C1C(Sc1ccccc1)CC2` (configuration not stated), the TGI in experiment [1] was more than 100 µM; in [2] it was more than 100 µM; in experiment [3], 61.7 µM; in [16], more than 100 µM; in [4] it was more than 100 µM; in experiment [5], 67.8 µM. The TGI was 30.7 µM in experiment [6]; more than 100 µM in [7]; 36.2 µM in experiment [8]; 85.2 µM in experiment [9]; 83.8 µM in [10]; 44 µM in experiment [11]. The TGI in experiment [12] and in experiment [15] was more than 100 µM throughout.
As for `COC(=O)C1=C(C)NC(=O)N2[C@@H](CCOCc3ccccc3)CC[C@@H]12`, the TGI in experiment [1], in experiment [17], in experiment [2], in experiment [18], in experiment [16] and in experiment [4] was more than 50 µM in each case. Further, the TGI in [5], in [6], in [7], in [8], in experiment [9] and in experiment [10] was more than 50 µM each time. Further, the TGI in [19], in experiment [11], in experiment [12], in experiment [13], in experiment [14] and in [15] was more than 50 µM each time. Further, the TGI in [20] was more than 50 µM.
Regarding `OC1NC2Nc3ccccc3NC2NC1O` (configuration not stated), the TGI in experiment [1], in experiment [17], in [2], in [18], in [16] and in experiment [4] was more than 100 µM each time. The TGI in experiment [5], in experiment [6], in experiment [7], in experiment [8], in experiment [9] and in [10] was more than 100 µM in each case. Besides, the TGI in experiment [19], in experiment [11], in experiment [12], in experiment [13], in [14] and in experiment [15] was more than 100 µM each time. The same molecule returned a TGI in experiment [20] of more than 100 µM.
Regarding `O=S(=O)(O)c1ccc(N=Nc2ccccc2)cc1`, the TGI in experiment [1], in experiment [17], in [2], in experiment [18], in experiment [16] and in experiment [4] was more than 100 µM in each case. Further, the TGI in experiment [5], in experiment [6], in experiment [7], in experiment [8], in [9] and in experiment [10] was more than 100 µM in each case. In addition, the TGI in experiment [19], in experiment [11], in experiment [12], in experiment [13], in experiment [14] and in [15] was more than 100 µM each time. The molecule further came in with a TGI in [20] of more than 100 µM.
Turning to `CCn1c(SCC(=O)N/N=C2\SCC(=O)N2c2ccc(C)cc2)nc2ccccc2c1=O`, the TGI in experiment [1] was 34.2 µM; in experiment [17], 54.2 µM; in experiment [2], 64.8 µM; in experiment [18] it was 75 µM; in experiment [16] it was 46.1 µM; in [4], more than 100 µM. In addition, the TGI in [5] is more than 100 µM; in experiment [6], 55.6 µM; in experiment [7], 35.3 µM; in [8], more than 100 µM; in experiment [9], 46.2 µM; in [10], 31.2 µM. Also, the TGI in experiment [19] was 43.8 µM; in [11], 47.7 µM; in experiment [12], 47.3 µM; in [13], 48.2 µM; in [14] it was 33.2 µM; in experiment [15], more than 100 µM. For the same molecule, the TGI in experiment [20] was 45.9 µM.
For the molecule `CC(=O)OCc1c(O)c2c([nH]c1=O)CCc1ccccc1-2`, the TGI in experiment [1] is more than 350 µM; in [2] it was more than 350 µM; in [3], 159 µM; in experiment [16], more than 350 µM; in [4], more than 350 µM; in [5], 297 µM. Further, the TGI in [6] is 131 µM; in experiment [7], 203 µM; in experiment [8], 210 µM; in [9] it was more than 350 µM; in experiment [10] it was 311 µM; in experiment [11] it was 221 µM. Further, the TGI worked out at 109 µM in experiment [12], 130 µM in [14] and 112 µM in experiment [15].
On to `COc1ccc(CCN2CCN(CCCc3ccccc3)CC2)cc1`, for which the TGI in [1], in experiment [17], in experiment [2], in [18], in experiment [16] and in [4] was more than 100 µM throughout. In addition, the TGI in experiment [5], in experiment [6], in experiment [7], in [8], in [9] and in experiment [10] was more than 100 µM in each case. Moreover, the TGI in [19] was more than 100 µM; in [11], more than 100 µM; in experiment [12] it was more than 100 µM; in [13] it was more than 100 µM; in [14], more than 100 µM; in [15], 54.3 µM. This molecule gave a TGI in experiment [20] of more than 100 µM.
On to `CC1C(C)(C)C23CC12C1(OCCO1)C3Br` (configuration not stated), for which the TGI in experiment [1], in experiment [17], in experiment [2], in experiment [18], in experiment [16] and in experiment [4] was more than 100 µM each time. For the same molecule, the TGI in [5], in [6], in experiment [7], in experiment [8], in experiment [9] and in experiment [10] was more than 100 µM each time. The TGI in [19], in experiment [11], in experiment [12], in experiment [13], in [14] and in experiment [15] was more than 100 µM throughout. In [20], the TGI was more than 100 µM.
Turning to `CCOC(=O)c1c(O)cn2c1[nH]c1cccc3cccc2c31`, the TGI in [1], in experiment [17], in experiment [2], in experiment [18], in [16] and in [4] was more than 100 µM throughout. Also, the TGI in experiment [5], in experiment [6], in experiment [7], in experiment [8], in [9] and in experiment [10] was more than 100 µM each time. The TGI in experiment [19], in experiment [11], in [12], in [13], in experiment [14] and in experiment [15] was more than 100 µM in each case. In experiment [20], this molecule came in with a TGI of more than 100 µM.
As to `O=[N+]([O-])c1ncc(N(CCO)CCO)s1`, the TGI in experiment [1], in experiment [17], in experiment [2], in experiment [18], in experiment [16] and in experiment [4] was more than 100 µM in each case. Also, the TGI is 56.9 µM in experiment [5]; 31.9 µM in [6]; 71.4 µM in experiment [7]; 40.7 µM in experiment [8]; more than 100 µM in experiment [9]; more than 100 µM in experiment [10]. Further, the TGI in [19] is more than 100 µM; in [11], more than 100 µM; in experiment [12], more than 100 µM; in experiment [13], more than 100 µM; in [14], more than 100 µM; in experiment [15], 49.6 µM. This molecule also came in with a TGI in experiment [20] of more than 100 µM.
Take `Cc1c(NC(=S)Nc2ccc([N+](=O)[O-])cc2)c(=O)n(-c2ccccc2)n1C`: the TGI in experiment [1], in experiment [17], in [2], in experiment [18], in [16] and in experiment [4] was more than 100 µM in each case. Also, the TGI in experiment [5], in experiment [6], in experiment [7], in [8], in experiment [9] and in experiment [10] was more than 100 µM in each case. The TGI in experiment [19], in experiment [11], in [12], in [13], in experiment [14] and in [15] was more than 100 µM each time. Further, the TGI in experiment [20] is more than 100 µM.
Turning to `COc1c2c(c3c(c1OC)c(=O)c1ccccc1n3C)OCO2`, the TGI in [1], in experiment [17], in experiment [2], in experiment [18], in experiment [16] and in experiment [4] was more than 100 µM in each case. Also, the TGI in [5], in experiment [6], in experiment [7], in [8], in experiment [9] and in experiment [10] was more than 100 µM in each case. For the same molecule, the TGI in experiment [19], in [11], in experiment [12], in experiment [13], in experiment [14] and in [15] was more than 100 µM each time. In addition, the TGI in [20] is more than 100 µM.
Regarding `COC(=O)c1ccc(NCc2cc(OC)ccc2OC)cc1`, the TGI in [1], in experiment [17], in experiment [2], in experiment [18], in experiment [16] and in experiment [4] was more than 100 µM each time. The TGI in [5], in experiment [6], in experiment [7], in [8], in experiment [9] and in [10] was more than 100 µM each time. Also, the TGI in [19], in [11], in experiment [12], in [13], in experiment [14] and in experiment [15] was more than 100 µM in each case. This molecule gave a TGI in [20] of more than 100 µM.
